# According to patent publication US8975417B2, “Pyrazolopyrrolidine derivatives and their use in the treatment of disease” (Novartis AG, priority 2013, dated 2015):
# Key:
# His-Brd4(44-477) = His-Brd4(44-477) (Homo sapiens (Human), UniProt O60885); test: TR-FRET in-vitro binding assay for BRD4; settings: biochemical
# How it was run: (§1)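 Bromodomain protein (45 nM in its addition solution) and tetra-acetylated histone H4 peptide (AcK5/8/12/16; 60 nM in its addition solution) were incubated with compounds for 35 min at 30 °C in 50 mM HEPES pH 7.5, 50 mM NaCl, 0.005% Tween20, 0.1% BSA. Eu-anti-His6 plus streptavidin-allophycocyanin detection followed, with TR-FRET read-out.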
# His-Brd2(60-472) = His-Brd2(60-472) (Homo sapiens (Human), UniProt P25440); test: TR-FRET in-vitro binding assay for BRD2; settings: biochemical
# How it was run: as §1
# His-Brd3(20-477) = His-Brd3(20-477) (Homo sapiens (Human), UniProt Q15059); test: TR-FRET in-vitro binding assay for BRD3; settings: biochemical
# How it was run: as §1
# [1] = biological target: His-CREBBP (1081-1197) bromodomain (Homo sapiens (Human), UniProt Q92793); test: AlphaScreen in-vitro binding assay for CREBBP; settings: biochemical
# How it was run: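 Ni-chelate acceptor and streptavidin donor beads (45 µg/mL each, in 50 mM HEPES pH 7.5, 150 mM NaCl, 0.02% BSA) were then added for 60 min at room temperature. IC50 came from 8-point non-linear regression.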
# MV-4-11 cells = test: Cell growth inhibition assay (CellTiter-Glo), MV-4-11; format: cell-based; settings: Homo sapiens, MV4-11, read-out: MV-4-11 TGI
# How it was run: (§2)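 Dose-response over 3-fold dilutions from 10 μM; 0.1% DMSO control. Endpoint: CellTiter-Glo ATP signal, background-subtracted and day 0-corrected.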
# THP-1 cells = test: Cell growth inhibition assay (CellTiter-Glo), THP-1; format: cell-based; settings: Homo sapiens, read-out: THP-1 TGI
# How it was run: as §2
# K-562 cells = test: Cell growth inhibition assay (CellTiter-Glo), K-562; format: cell-based, human; settings: Homo sapiens, K562, read-out: K-562 TGI
# How it was run: as §2
# Sequence of His-Brd3(20-477) (Q15059 20-477): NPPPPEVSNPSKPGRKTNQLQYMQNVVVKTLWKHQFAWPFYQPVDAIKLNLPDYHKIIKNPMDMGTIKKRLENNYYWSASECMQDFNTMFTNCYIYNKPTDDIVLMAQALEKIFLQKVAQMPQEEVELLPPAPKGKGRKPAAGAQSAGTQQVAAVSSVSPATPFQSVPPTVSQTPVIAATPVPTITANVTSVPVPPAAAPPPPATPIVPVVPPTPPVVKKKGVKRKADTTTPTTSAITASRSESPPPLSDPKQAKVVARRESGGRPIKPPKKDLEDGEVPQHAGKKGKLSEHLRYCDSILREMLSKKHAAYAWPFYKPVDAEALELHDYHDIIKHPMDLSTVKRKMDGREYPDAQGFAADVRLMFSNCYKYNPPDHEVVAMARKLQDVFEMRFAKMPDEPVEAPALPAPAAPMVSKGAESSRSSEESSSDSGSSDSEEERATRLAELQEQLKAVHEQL
# Sequence of His-CREBBP (1081-1197) bromodomain (Q92793 1081-1197): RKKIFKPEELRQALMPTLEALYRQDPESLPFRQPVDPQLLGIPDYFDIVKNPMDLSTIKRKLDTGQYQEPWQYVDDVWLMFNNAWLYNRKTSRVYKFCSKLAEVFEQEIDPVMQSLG
# Sequence of His-Brd2(60-472) (P25440 60-472): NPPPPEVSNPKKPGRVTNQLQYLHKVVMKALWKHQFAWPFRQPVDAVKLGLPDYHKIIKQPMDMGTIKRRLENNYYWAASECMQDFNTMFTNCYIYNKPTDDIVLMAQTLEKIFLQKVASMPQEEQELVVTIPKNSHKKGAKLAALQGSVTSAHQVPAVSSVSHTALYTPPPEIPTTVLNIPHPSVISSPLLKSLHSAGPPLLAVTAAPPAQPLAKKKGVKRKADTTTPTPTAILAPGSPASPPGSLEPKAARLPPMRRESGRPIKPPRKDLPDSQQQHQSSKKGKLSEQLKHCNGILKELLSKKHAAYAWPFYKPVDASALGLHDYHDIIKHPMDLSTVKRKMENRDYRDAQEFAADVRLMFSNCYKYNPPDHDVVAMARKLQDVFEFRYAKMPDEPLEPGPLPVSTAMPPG
Compound,IC50 (His-Brd4(44-477)) [nM],IC50 (His-Brd2(60-472)) [nM],IC50 (His-Brd3(20-477)) [nM],IC50 [1] [nM],IC (total growth inhibition) (MV-4-11 cells) [µM],IC (total growth inhibition) (THP-1 cells) [µM],IC (total growth inhibition) (K-562 cells) [µM]
"COc1ncccc1-n1nc(C)c2c1C(=O)N(c1cc(C)c3nnc(C)n3c1)C2c1ccc(F)cc1F (stereo not shown) [Example 173, 4-(2,4-difluorophenyl)-5-(3,8-dimethyl-[1,2,4]triazolo[4,3-a]pyridin-6-yl)-1-(2-methoxypyridin-3-yl)-3-methyl-4,5-dihydropyrrolo[3,4-c]pyrazol-6(1H)-one]",58,79,87,> 37000,0.139,0.282,> 10
"Cc1[nH]nc2c1C(c1ccc(Cl)cc1)N(c1cc(C)c(=O)n(C)c1)C2=O (stereo not shown) [Example 27, 4-(4-chlorophenyl)-5-(1,5-dimethyl-6-oxo-1,6-dihydropyridin-3-yl)-3-methyl-4,5-dihydropyrrolo[3,4-c]pyrazol-6(2H)-one]",95,310,180,3800,0.158,0.363,> 10
"Cc1nn(C)c2c1C(c1ccc(Cl)cc1)N(c1cc(Cl)c(=O)n(C)c1)C2=O (stereo not shown) [Example 58, 5-(5-chloro-1-methyl-6-oxo-1,6-dihydropyridin-3-yl)-4-(4-chlorophenyl)-1,3-dimethyl-4,5-dihydropyrrolo[3,4-c]pyrazol-6(1H)-one]",410,560,290,8200,0.157,0.38,> 10
"Cc1cc(N2C(=O)c3nn(C(C)C)c(C)c3C2c2ccc(F)cc2F)cn2c(C)nnc12 (stereo not shown) [Example 175, 4-(2,4-difluorophenyl)-5-(3,8-dimethyl-[1,2,4]triazolo[4,3-a]pyridin-6-yl)-2-isopropyl-3-methyl-4,5-dihydropyrrolo[3,4-c]pyrazol-6(2H)-one]",34,72,37,13000,0.0867,0.131,> 10
"Cc1cc(N2C(=O)c3nn(C(C)C)c(C)c3C2c2ccc(Cl)cc2)cn(C)c1=O (stereo not shown) [Example 64, 4-(4-chlorophenyl)-5-(1,5-dimethyl-6-oxo-1,6-dihydropyridin-3-yl)-2-isopropyl-3-methyl-4,5-dihydropyrrolo[3,4-c]pyrazol-6(2H)-one]",130,180,110,400,0.0423,0.113,> 10
"Cc1nn(C2CC2)c2c1C(c1ccc(Cl)cc1F)N(c1cc(C)c3nnc(C)n3c1)C2=O (stereo not shown) [Example 178, 4-(4-chloro-2-fluorophenyl)-1-cyclopropyl-5-(3,8-dimethyl-[1,2,4]triazolo[4,3-a]pyridin-6-yl)-3-methyl-4,5-dihydropyrrolo[3,4-c]pyrazol-6(1H)-one]",66,68,62,32000,0.0491,0.107,> 10
"CCn1nc(C)c2c1C(=O)N(c1cc(C)c(=O)n(C)c1)C2c1ccc(Cl)cc1F (stereo not shown) [Example 170, 4-(4-chloro-2-fluorophenyl)-5-(1,5-dimethyl-6-oxo-1,6-dihydropyridin-3-yl)-1-ethyl-3-methyl-4,5-dihydropyrrolo[3,4-c]pyrazol-6(1H)-one]",15,16,13,630,0.0159,0.0331,> 10
